Reference: US20040102454A1, “Phenylahistin and the phenylahistin analogs, a new class of anti-tumor compounds” (priority 1998, published 2004)

Key:
Assay in all cases: HCC panel assay, sulforhodamine B
Type in all cases: cell-based
[1] = system: A549; details: A549, Lung, (−)-PLH content 24.1%
Protocol: (§1) The antitumor activity of PLH was evaluated by the Human Cancer Cell Line Panel (HCC panel) assay, see Yamori T., Jap. J Cancer Chemother., (1997), 24, 129-35. This HCC panel consists of 38 tumor cell lines including 7 lung cancer, 6 stomach, 6 colon, 5 ovary, 6 central nerve system, 5 breast, 2 kidney and 1 melanoma cell lines. Each tumor cell was seeded in 96-well tissue culture plates and incubated overnight. Various concentrations (5 doses; final 10^−4, 10^−5, 10^−6, 10^−7 and 10^−8 M) of PLH were added, and the cells were incubated for 48 hours. […] All mice were obtained from Japan SLC (Shizuoka, Japan), P388 leukemia cells were obtained from Dainippon Pharmaceuticals Inc. (Osaka, Japan), Lewis Lung Carcinoma from Riken Cell Bank (Tsukuba, Japan), and Colon 26 cells from the National Cancer Center, Japan (Tokyo, Japan).

[2] = system: ACHN; details: Renal, (−)-PLH content 24.1%
Protocol: as §1

[3] = system: BSY-1; details: BSY-1, Breast, (−)-PLH content 24.1%
Protocol: as §1

[4] = system: DMS273; details: DMS273, Lung, (−)-PLH content 24.1%
Protocol: as §1

[5] = system: HBC-4; details: HBC-4, Breast, (−)-PLH content 24.1%
Protocol: as §1

[6] = system: HT-29; details: HT-29, Colon, (−)-PLH content 24.1%
Protocol: as §1

[7] = system: KM-12; details: KM-12, Colon, (−)-PLH content 24.1%
Protocol: as §1

[8] = system: LOX-IMVI; details: Melanoma, (−)-PLH content 24.1%
Protocol: as §1

[9] = system: MDA-MB-231; details: MDA-MB-231, Breast, (−)-PLH content 24.1%
Protocol: as §1

[10] = system: MKN74; details: MKN74, Stomach, (−)-PLH content 24.1%
Protocol: as §1

[11] = system: NCI-H23; details: NCI-H23, Lung, (−)-PLH content 24.1%
Protocol: as §1

[12] = system: NCI-H460; details: NCI-H460, Lung, (−)-PLH content 24.1%
Protocol: as §1

[13] = system: NCI-H522; details: NCI-H522, Lung, (−)-PLH content 24.1%
Protocol: as §1

[14] = system: OVCAR-3
Protocol: as §1

[15] = system: RXF-6311; details: RXF-6311, Renal, (−)-PLH content 24.1%
Protocol: as §1

[16] = system: SF-295; details: SF-295, CNS, (−)-PLH content 24.1%
Protocol: as §1

[17] = system: SK-OV-3; details: SK-OV-3, Ovary, (−)-PLH content 24.1%
Protocol: as §1

[18] = system: SNB-75; details: SNB-75, CNS, (−)-PLH content 24.1%
Protocol: as §1

[19] = system: SNB-78; details: SNB-78, CNS, (−)-PLH content 24.1%
Protocol: as §1

[20] = system: U251; details: U251, CNS, (−)-PLH content 24.1%
Protocol: as §1

[21] = system: WiDr; details: Colon, (−)-PLH content 24.1%
Protocol: as §1

[22] = Homo sapiens, read-out: GL50 (the source's name)
[23] = Homo sapiens, read-out: LC50 (the source's name)

C=CC(C)(C)c1[nH]cnc1/C=C1\NC(=O)[C@H](Cc2ccccc2)NC1=O (racemic) [PLH, phenylahistin]
TGI [1]: >100 µM
IC50 [1, 22]: 0.97 µM
CC50 [1, 23]: > 100 µM
IC50 [2, 22]: 28 µM
CC50 [2, 23]: > 100 µM
TGI [2]: >100 µM
TGI [3]: 0.67 µM
IC50 [3, 22]: 0.23 µM
CC50 [3, 23]: > 100 µM
TGI [4]: >100 µM
IC50 ([4]; Homo sapiens, DMS-273, read-out: GL50 (the source's name)): 0.29 µM
CC50 ([4]; Homo sapiens, DMS-273, read-out: LC50 (the source's name)): > 100 µM
TGI [5]: >100 µM
IC50 ([5]; Homo sapiens, HBC4, read-out: GL50 (the source's name)): 0.46 µM
CC50 ([5]; Homo sapiens, HBC4, read-out: LC50 (the source's name)): > 100 µM
TGI [6]: >100 µM
IC50 [6, 22]: 0.4 µM
CC50 [6, 23]: > 100 µM
IC50 ([7]; Homo sapiens, KM12, read-out: GL50 (the source's name)): 0.38 µM
CC50 ([7]; Homo sapiens, KM12, read-out: LC50 (the source's name)): > 100 µM
TGI [7]: >100 µM
IC50 [8, 22]: 1.3 µM
CC50 [8, 23]: > 100 µM
TGI [8]: >100 µM
IC50 [9, 22]: 0.64 µM
CC50 [9, 23]: > 100 µM
TGI [9]: 6 µM
IC50 ([10]; Homo sapiens, MKN-74, read-out: GL50 (the source's name)): 0.48 µM
CC50 ([10]; Homo sapiens, MKN-74, read-out: LC50 (the source's name)): > 100 µM
TGI [10]: >100 µM
IC50 [11, 22]: 0.91 µM
CC50 [11, 23]: > 100 µM
TGI [11]: 92 µM
IC50 [12, 22]: 0.41 µM
CC50 [12, 23]: > 100 µM
TGI [12]: >100 µM
IC50 [13, 22]: 0.25 µM
CC50 [13, 23]: > 100 µM
TGI [13]: 0.81 µM
CC50 ([14]; Homo sapiens, OVCAR-3, read-out: LC50): > 100 µM
IC50 ([14]; Homo sapiens, OVCAR-3, Ovary, (−)-PLH content 24.1%, read-out: GL50 (the source's name)): 3 µM
TGI ([14]; OVCAR-3, Ovary, (−)-PLH content 24.1%): >100 µM
IC50 [15, 22]: 1.9 µM
CC50 [15, 23]: > 100 µM
TGI [15]: >100 µM
IC50 [16, 22]: 0.32 µM
CC50 [16, 23]: > 100 µM
TGI [16]: 2.4 µM
IC50 [17, 22]: 0.37 µM
CC50 [17, 23]: > 100 µM
TGI [17]: >100 µM
IC50 [18, 22]: 0.37 µM
CC50 [18, 23]: > 100 µM
TGI [18]: >100 µM
IC50 [19, 22]: 1.3 µM
CC50 [19, 23]: > 100 µM
TGI [19]: >100 µM
IC50 ([20]; Homo sapiens, U-251, read-out: GL50 (the source's name)): 0.44 µM
CC50 ([20]; Homo sapiens, U-251, read-out: LC50 (the source's name)): > 100 µM
TGI [20]: 10 µM
TGI [21]: 0.79 µM
IC50 [21, 22]: 0.27 µM
CC50 [21, 23]: > 100 µM
